≈ marks a conversion by molar mass, not a printed value.
Assays:
[1] = Cytotoxicity, MTT method; conditions: cattle (Bos taurus)
[2] = system: BVDV; assay: microbe, parasite or virus in culture; assay type: cell-based, bovine viral diarrhoea virus; conditions: Bovine viral diarrhea virus isolates and strains, MDBK, in Bos taurus, read-out: BVDV EC50
[3] = Cytotoxicity, MTT method; conditions: Syrian hamster (Mesocricetus auratus)
[4] = system: YFV; assay: microbe, parasite or virus in culture; assay type: cell-based; conditions: Yellow fever virus, BHK, read-out: YFV EC50
[5] = system: RSV; assay: microbe, parasite or virus in culture; assay type: cell-based, human respiratory syncytial virus; conditions: for EC50: human respiratory syncytial virus, Vero 76, read-out: RSV EC50
[6] = Cytotoxicity, MTT method; conditions: African green monkey (Cercopithecus aethiops)
[7] = system: HIV-1; assay: microbe, parasite or virus in culture; conditions: Human immunodeficiency virus 1, MT4, read-out: HIV-1 EC50
[8] = system: Reo-1; assay: microbe, parasite or virus in culture; assay type: cell-based, reovirus type-1; conditions: Reovirus sp., BHK, read-out: Reo-1 EC50
[9] = system: VV; assay: microbe, parasite or virus in culture; assay type: cell-based; conditions: Orthopoxvirus vaccinia, Vero 76, read-out: VV EC50
[10] = system: Sb-1; assay: microbe, parasite or virus in culture; assay type: cell-based, poliovirus type-1; conditions: Enterovirus C, Vero 76, read-out: Sb-1 EC50
[11] = system: VSV; assay: microbe, parasite or virus in culture; assay type: cell-based; conditions: Vesicular stomatitis virus, Vero 76, read-out: VSV EC50
[12] = system: HSV-1; assay: microbe, parasite or virus in culture; assay type: cell-based, human herpes 1; conditions: Human alphaherpesvirus 1, Vero 76, read-out: HSV-1 EC50
[13] = system: CV-B5; assay: microbe, parasite or virus in culture; assay type: cell-based, coxsackievirus B5; conditions: Enterovirus B, CVB5, Vero 76, read-out: CV-B5 EC50
[14] = Cytotoxicity, MTT method; conditions: human
[15] = system: S. aureus ATCC 29213; assay: disc diffusion method; assay type: cell-based, Staphylococcus aureus; conditions: Staphylococcus aureus, ATCC29213, applied 400 µg per disc, dash = lack of the growth inhibition area, read-out: diameter of growth inhibitory zone (GIZ)
[16] = system: B. subtilis ATCC 6633; assay: disc diffusion method; assay type: cell-based, Bacillus subtilis; conditions: Bacillus subtilis, ATCC6633, applied 400 µg per disc, dash = lack of the growth inhibition area, read-out: diameter of growth inhibitory zone (GIZ)
[17] = system: S. aureus NCTC 4163; assay: MIC, twofold serial agar dilution; assay type: cell-based; conditions: Staphylococcus aureus, NCTC4163, 18 h, 35 °C, read-out: minimal inhibitory concentrations (MIC)
[18] = system: M. luteus ATCC 10240; assay: disc diffusion method; assay type: cell-based, Micrococcus luteus; conditions: Micrococcus luteus, ATCC10240, applied 400 µg per disc, dash = lack of the growth inhibition area, read-out: diameter of growth inhibitory zone (GIZ)
[19] = system: S. epidermidis (MRSE); assay: MIC against hospital strains; conditions: Staphylococcus epidermidis
[20] = system: B. cereus ATCC 11778; assay: MIC, twofold serial agar dilution; assay type: cell-based; conditions: Bacillus cereus, ATCC11778, 18 h, 35 °C, read-out: minimal inhibitory concentrations (MIC)
[21] = system: M. luteus ATCC 10240; assay: MIC, twofold serial agar dilution; assay type: cell-based; conditions: Micrococcus luteus, ATCC10240, 18 h, 35 °C, read-out: minimal inhibitory concentrations (MIC)
[22] = system: B. subtilis ATCC 6633; assay: MIC, twofold serial agar dilution; assay type: cell-based; conditions: Bacillus subtilis, ATCC6633, 18 h, 35 °C, read-out: minimal inhibitory concentrations (MIC)
[23] = system: S. aureus ATCC 25923; assay: disc diffusion method; assay type: cell-based, Staphylococcus aureus; conditions: Staphylococcus aureus, ATCC25923, applied 400 µg per disc, dash = lack of the growth inhibition area, read-out: diameter of growth inhibitory zone (GIZ)
[24] = system: B. cereus ATCC 11778; assay: disc diffusion method; assay type: cell-based, Bacillus cereus; conditions: Bacillus cereus, ATCC11778, applied 400 µg per disc, dash = lack of the growth inhibition area, read-out: diameter of growth inhibitory zone (GIZ)
[25] = system: S. aureus NCTC 4163; assay: disc diffusion method; assay type: cell-based, Staphylococcus aureus; conditions: Staphylococcus aureus, NCTC4163, applied 400 µg per disc, dash = lack of the growth inhibition area, read-out: diameter of growth inhibitory zone (GIZ)
[26] = in vitro; conditions: human
[27] = system: S. aureus ATCC 6538; assay: disc diffusion method; assay type: cell-based, Staphylococcus aureus; conditions: Staphylococcus aureus, ATCC6538, applied 400 µg per disc, dash = lack of the growth inhibition area, read-out: diameter of growth inhibitory zone (GIZ)
[28] = system: S. aureus ATCC 25923; assay: MIC, twofold serial agar dilution; assay type: cell-based; conditions: Staphylococcus aureus, ATCC25923, 18 h, 35 °C, read-out: minimal inhibitory concentrations (MIC)
[29] = system: M. luteus ATCC 9341; assay: disc diffusion method; assay type: cell-based, Micrococcus luteus; conditions: Micrococcus luteus, ATCC9341, applied 400 µg per disc, dash = lack of the growth inhibition area, read-out: diameter of growth inhibitory zone (GIZ)
[30] = in vitro; conditions: cattle (Bos taurus)
[31] = in vitro; conditions: Syrian hamster (Mesocricetus auratus)
[32] = in vitro; conditions: African green monkey (Cercopithecus aethiops)
[33] = system: S. aureus ATCC 6538; assay: MIC, twofold serial agar dilution; assay type: cell-based; conditions: Staphylococcus aureus, ATCC6538, 18 h, 35 °C, read-out: minimal inhibitory concentrations (MIC)
[34] = system: S. aureus ATCC 29213; assay: MIC, twofold serial agar dilution; assay type: cell-based; conditions: Staphylococcus aureus, ATCC29213, 18 h, 35 °C, read-out: minimal inhibitory concentrations (MIC)
[35] = system: M. luteus ATCC 9341; assay: MIC, twofold serial agar dilution; assay type: cell-based; conditions: Micrococcus luteus, ATCC9341, 18 h, 35 °C, read-out: minimal inhibitory concentrations (MIC)
[36] = hospital S. epidermidis MRSE strain 430/11
[37] = hospital S. epidermidis MRSE strain 431/11
[38] = hospital S. epidermidis MRSE strain 432/11
[39] = hospital S. epidermidis MRSE strain 433/11
[40] = hospital S. epidermidis MRSE strain 434/11
[41] = hospital S. epidermidis MRSE strain 435/11
[42] = hospital S. epidermidis MRSE strain 436/11
[43] = hospital S. epidermidis MRSE strain 437/11
[44] = hospital S. epidermidis MRSE strain 438/11
[45] = hospital S. epidermidis MRSE strain 439/11

C[C@@]1(O)[C@H](O)[C@@H](CO)O[C@H]1n1cnc2c(=O)[nH]c(N)nc21 [2′-C-methyl-guanosine, 2′-C-methylguanosine, reference compound]
CC50 [1]: > 10 µM
EC50 [2]: 1.1 ± 0.1 µM
CC50 [3]: > 10 µM
EC50 [4]: 1.9 ± 0.1 µM

O=c1cnn([C@@H]2O[C@H](CO)[C@@H](O)[C@H]2O)c(=O)[nH]1 [6-Aza-uridine, 6-azauridine, reference compound]
EC50 [5]: 1.4 ± 0.06 µM
CC50 [6]: 12 µM

COc1ccc(NC(=S)NCCc2c[nH]c3ccccc23)cc1 [Compound 2, 1-(2-(1H-Indol-3-yl)ethyl)-3-(4-methoxyphenyl)thiourea]
EC50 [7]: > 32 µM
EC50 [8]: > 44 µM
EC50 [9]: > 56 µM
CC50 [1]: > 100 µM
EC50 [10]: > 56 µM
melting point: 146 to 148 °C
EC50 [5]: > 56 µM
EC50 [2]: > 100 µM
EC50 [11]: > 56 µM
EC50 [12]: > 56 µM
EC50 [13]: > 56 µM
CC50 [6]: 56 µM
CC50 [14]: 32 µM
CC50 [3]: 44 µM
EC50 [4]: > 44 µM

Cc1ccc(NC(=S)NCCc2c[nH]c3ccccc23)cc1 [Compound 3, 1-(2-(1H-Indol-3-yl)ethyl)-3-(4-methylphenyl)thiourea]
EC50 [7]: > 33 µM
EC50 [8]: > 16 µM
EC50 [9]: > 75 µM
CC50 [1]: > 100 µM
EC50 [10]: > 75 µM
activity against RSV (in words) [5]: moderately active
EC50 [5]: 20 ± 3 µM
EC50 [2]: ≥ 100 µM
EC50 [11]: > 75 µM
EC50 [12]: > 75 µM
EC50 [13]: > 75 µM
CC50 [6]: 75 µM
CC50 [14]: 33 µM
CC50 [3]: 16 µM
EC50 [4]: > 16 µM

S=C(NCCc1c[nH]c2ccccc12)Nc1ccccc1Br [Compound 15, 1-(2-(1H-Indol-3-yl)ethyl)-3-(2-bromophenyl)thiourea]
EC50 [7]: > 46 µM
zone of inhibition at 400 µg/disc [15]: 11 mm
zone of inhibition at 400 µg/disc [16]: 15 mm
MIC [17]: 50 µg/mL (≈ 134 µM)
zone of inhibition at 400 µg/disc [18]: 14 mm
EC50 [8]: > 28 µM
MIC [19, 36]: 400 µg/mL (≈ 1070 µM)
MIC [19, 37]: 50 µg/mL (≈ 134 µM)
MIC [19, 38]: 50 µg/mL (≈ 134 µM)
MIC [19, 39]: 50 µg/mL (≈ 134 µM)
MIC [19, 40]: 50 µg/mL (≈ 134 µM)
MIC [19, 41]: 100 µg/mL (≈ 267 µM)
MIC [19, 42]: 100 µg/mL (≈ 267 µM)
MIC [19, 43]: 100 µg/mL (≈ 267 µM)
MIC [19, 44]: 200 µg/mL (≈ 534 µM)
MIC [19, 45]: 50 µg/mL (≈ 134 µM)
MIC [20]: 50 µg/mL (≈ 134 µM)
MIC [21]: 50 µg/mL (≈ 134 µM)
EC50 [9]: > 46 µM
MIC [22]: 50 µg/mL (≈ 134 µM)
zone of inhibition at 400 µg/disc [23]: 11 mm
zone of inhibition at 400 µg/disc [24]: 14 mm
zone of inhibition at 400 µg/disc [25]: 11 mm
CC50 [26]: 46 µM
zone of inhibition at 400 µg/disc [27]: 12 mm
EC50 [10]: > 46 µM
melting point: 150 to 152 °C
MIC [28]: 100 µg/mL (≈ 267 µM)
activity against RSV (in words) [5]: moderately active
EC50 [5]: 20 ± 2.5 µM
EC50 [2]: > 48 µM
zone of inhibition at 400 µg/disc [29]: 13 mm
EC50 [11]: > 46 µM
EC50 [12]: > 46 µM
CC50 [30]: 48 µM
EC50 [13]: > 46 µM
CC50 [31]: 28 µM
CC50 [32]: 46 µM
MIC [33]: 50 µg/mL (≈ 134 µM)
MIC [34]: 50 µg/mL (≈ 134 µM)
MIC [35]: 200 µg/mL (≈ 534 µM)
EC50 [4]: > 28 µM

C=C(C)CNC(=S)NCCc1c[nH]c2ccccc12 [Compound 19, 1-(2-(1H-Indol-3-yl)ethyl)-3-(2-methylallyl)thiourea]
EC50 [7]: > 100 µM
zone of inhibition at 400 µg/disc [16]: 13 mm
MIC [17]: 400 µg/mL (≈ 1460 µM)
zone of inhibition at 400 µg/disc [18]: 14 mm
EC50 [8]: > 35 µM
MIC [19, 36]: 12.5 µg/mL (≈ 45.7 µM)
MIC [19, 37]: 100 µg/mL (≈ 366 µM)
MIC [19, 38]: 12.5 µg/mL (≈ 45.7 µM)
MIC [19, 39]: 50 µg/mL (≈ 183 µM)
MIC [19, 40]: 12.5 µg/mL (≈ 45.7 µM)
MIC [19, 41]: 50 µg/mL (≈ 183 µM)
MIC [19, 42]: 100 µg/mL (≈ 366 µM)
MIC [19, 43]: 200 µg/mL (≈ 732 µM)
MIC [19, 44]: 100 µg/mL (≈ 366 µM)
MIC [19, 45]: 50 µg/mL (≈ 183 µM)
MIC [20]: 200 µg/mL (≈ 732 µM)
MIC [21]: 50 µg/mL (≈ 183 µM)
EC50 [9]: > 89 µM
MIC [22]: 400 µg/mL (≈ 1460 µM)
zone of inhibition at 400 µg/disc [23]: 12 mm
zone of inhibition at 400 µg/disc [24]: 13 mm
zone of inhibition at 400 µg/disc [25]: 12 mm
CC50 [26]: > 100 µM
zone of inhibition at 400 µg/disc [27]: 11 mm
EC50 [10]: > 89 µM
melting point: 141 to 143 °C
MIC [28]: 400 µg/mL (≈ 1460 µM)
EC50 [5]: > 89 µM
EC50 [2]: ≥ 100 µM
zone of inhibition at 400 µg/disc [29]: 13 mm
EC50 [11]: > 89 µM
EC50 [12]: > 89 µM
CC50 [30]: > 100 µM
EC50 [13]: > 89 µM
CC50 [31]: 35 µM
CC50 [32]: 89 µM
MIC [33]: 200 µg/mL (≈ 732 µM)
MIC [35]: 200 µg/mL (≈ 732 µM)
EC50 [4]: > 35 µM

— article PMC6222422, “Synthesis and Biological Evaluation of Novel Indole-Derived Thioureas” (Molecules : A Journal of Synthetic Chemistry and Natural …, 2018)
